IC50 data for five compounds are collected here from ChEMBL document CHEMBL4138170, “Synthesis and biological evaluation of novel alkylated polyamine analogues as potential anticancer agents” (Eur J Med Chem, 2018).

Common to all, as to type: functional, cell-based
The subject of one test is SMMC-7721. As to the kind of experiment: Antiproliferative activity against human SMMC7721 cells after 48 hrs by MTT assay. The following applies: SMMC-7721, 48 h.
For the next test, the system named is HCT-116. As to the kind of experiment: Antiproliferative activity against human HCT116 cells after 48 hrs by MTT assay. The following applies: HCT-116, 48 h.
A further test has as its system HepG2. As to the kind of experiment: Antiproliferative activity against human HepG2 cells after 48 hrs by MTT assay. The following applies: HepG2, 48 h.
Another test has as its system K562. As to the kind of experiment: Antiproliferative activity against human K562 cells after 48 hrs by MTT assay. The following applies: K562, 48 h.

For `O=C1c2cccc3cccc(c23)C(=O)N1CCCNCCCCNCCCNC1CC1`, the IC50 with SMMC-7721 turned out to be 6.38 µM; with HCT-116, 7.21 µM; with HepG2, 6.59 µM; in the test with K562, 8.09 µM.
Take `CCCNCCCCNCCCCNCCCCN1C(=O)c2cccc3cccc(c23)C1=O`: the IC50 with SMMC-7721 is 18.8 µM; with HCT-116, 20.4 µM; in the test with HepG2 it was 75.3 µM; with K562, 32.4 µM.
The matching figures for `CCNCCCNCCCCNCCCN1C(=O)c2cccc3cccc(c23)C1=O`: 11 µM, 5.94 µM, 5.22 µM and 14.8 µM.
Turning to `CCNCCCNCCCNCCCN1C(=O)c2cccc3cccc(c23)C1=O`, the IC50 with SMMC-7721 came out at 7.71 µM; with HCT-116 it was 6.73 µM; in the test with HepG2, 6.77 µM; with K562, 6.08 µM.
For the compound `CCCNCCCNCCCNCCCN1C(=O)c2cccc3cccc(c23)C1=O`, the IC50 was 11.2 µM with SMMC-7721, 7.96 µM with HCT-116, 9.98 µM in the test on HepG2 and 10.2 µM in the test with K562.
